# Measured values from paper PMC11868579 (Nature Communications, 2024).
# Values joined by “and” are separate entries in the source; they are usually repeats but may differ in a detail not shown here. Identical values can stand only once.
# Legend:
# c-Myc-activity = assay: c-Myc-regulated luciferase reporter in SW620 cells; type: cell-based, human; parameters: CMV, Average / c-Myc, Average: unit not given here; conditions: for c-Myc, Average / CMV, Average: SW620; for c-Myc, Average: c-Myc-regulated firefly luciferase reporter; for CMV, Average: constitutive CMV promoter-regulated renilla luciferase reporter
# Experimental: Luminescence was measured using the Dual-glo luciferase assay (mean ± SEM from 3 biological replicates). b SW620 cells were transfected with a c-Myc-regulated firefly luciferase expression reporter or a constitutive CMV promoter-regulated renilla luciferase reporter. Cells were treated for 24 hr with 1 or 10 µM compound 4 or the […] kinase inhibitor AZD8055 as positive control (mean ± SEM from 3 biological replicates). An ordinary one-way ANOVA with Tukey multiple comparisons test was performed comparing c-Myc-regulated firefly luciferase expression or CMV-regulated Renilla luciferase expression following the different treatments. For c-Myc-regulated firefly luciferase expression, all significant p values […]
# were <0.0001. […]
# Source data is located in the Supplementary Source Data file
# [1] = test system: cap-dependent and cap-independent (IRES) protein synthesis; assay: Bicistronic protein synthesis reporter in H1299 cells; type: cell-based, human; conditions: H1299; 100 μM, 24 hr; normalisation not stated
# Experimental: H1299 cells were transfected with a biscistronic vector using Lipofectamine 3000 transfection reagent (Fisher Scientific, cat#L3000008) for 24 hr and then treated with compounds for further 24 h. Luminescence was measured after 24 h of compound treatment using the Dual Glo luciferase reporter assays as above.
# [2] = target: T1, eIF4E minor variant D127N (N127) (Homo sapiens, UniProt P06730, D127N); assay: Isothermal titration calorimetry, eIF4E minor variant; type: binding; conditions: for Kd: ITC; for Kd / LE (ligand efficiency): minor variant D127N
# T1 construct: made in house; host or cells: E. coli BL21-CodonPlus (DE3)-RIPL
# T1 sequence (P06730 36-217 D127N): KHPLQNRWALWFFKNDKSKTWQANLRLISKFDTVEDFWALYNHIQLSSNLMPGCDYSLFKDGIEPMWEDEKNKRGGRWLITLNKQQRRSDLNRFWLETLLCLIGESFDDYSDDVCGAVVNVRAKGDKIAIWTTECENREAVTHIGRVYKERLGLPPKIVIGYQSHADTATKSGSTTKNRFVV
# Experimental: ITC experiments were performed on either a MicroCal VP-ITC or a MicroCal Auto-ITC200 at 25 °C in a buffer comprising 50 mM HEPES, 100 mM NaCl, 1 mM TCEP and 5% DMSO at pH 7.5. Typical titrations on the MicroCal VP-ITC were performed using 17 × 16.4 µL injections with a 250 s spacing between each injection and with a stirring speed of 307 rpm. Typical titrations on the MicroCal Auto-ITC200 were performed using 12 × 3 µL injections with a 150 s spacing between each injection and with a stirring speed of 750 rpm. ITC data analyses were performed with Origin 7.0 software using the “One Set of Sites” model.
# [3] = test system: H1299 eIF4E-dTAG clones proteome; assay: Global proteome profiling (DIA LC-MS/MS); type: cell-based, human; conditions: 500 nM, 72 hr
# Experimental: Cells (1 × 10^5 cells/ml) were lysed using SDS-free lysis and the lysate made up to 1 mL. Disulphide bounds were disrupted by reduction and alkylation. DTT was added to sample with a final concentration of 10 mM and incubated at 37 °C for 30 min. Iodoacetamide was then added to sample with a final concentration of 55 mM and incubated in the dark at room temperature for 30 min. The protein mixture was then enriched through a solid phase (SPE) C18 column. The C18 column was activated with 1 ml methanol at a rate of 3 drops/second, followed by 1 ml 0.1% formic acid to condition the column. The diluted protein mixture was loaded onto the column at 1 drop/sec, the column was washed with 3 ml 0.1% formic acid and enriched proteins were eluted with 800 μl 75% acetonitrile at a rate of 0.5 drops per second and the eluate was freeze-dried. The freeze-dried proteins were redissolved in 20 μl 50 mM ammonium bicarbonate and quantified according to the manufacturer’s instructions (Pierce Quantitative Fluorometric Peptide Assay cat# 23290). A small aliquot was removed for PAGE QC analysis on a 12% polyacrylamide gel. The remainder of the protein samples were digested with trypsin at a ratio of 1:20 for enzyme and proteins (w/w). The mixture was incubated for 14–16 h at 37 °C.
# For DDA (Data Dependent Acquisition) library construction (Nano-LC-MS/MS) the dried peptide samples were reconstituted with mobile phase A (2% ACN, 0.1% FA), centrifuged at 20,000 g for 10 minutes, and the supernatant was taken for injection. Separation was carried out by a Thermo UltiMate 3000 UHPLC liquid chromatograph. […] The main parameters were set: ion source voltage was set to 1.9 kV, MS1 mass spectrometer scanning range was 350 ~ 1650 m/z; resolution was set to 120,000; maximal injection time (MIT) 90 ms; MS/MS collision type HCD, collision energy NCE 30; MS/MS resolution 30,000, MIT was auto mode, dynamic exclusion duration 120 seconds. The start m/z for MS/MS was fixed to auto mode. Precursor for MS/MS scan satisfied: charge range 2+ to 6 + , top 30 precursors with intensity over 2E4. AGC was: MS 300%, MS/MS 100%.
# Peptides separated by liquid phase chromatography were ionized by a nanoESI source and then passed to an Orbitrap Exploris480 (Thermo Fisher Scientific, San Jose,CA) to acquire mass spectrometry data in DIA mode. The main parameters were set: ion source voltage was set to 1.9 kV, MS1 mass spectrometer scanning range was 400 ~ 1250 m/z; resolution was set to 120,000; maximal injection time (MIT) 90 ms; 400 ~ 1250 m/z was equally divided to 50 continuous windows MS/MS scan. MS/MS collision type HCD, collision energy NCE 30; MIT was auto mode. Fragment ions were scanned in Orbitrap, MS/MS resolution 30,000. AGC was: MS 300%, MS/MS 1000%.
# DIA data was analysed using the iRT peptides for retention time calibration. Then, based on the target-decoy model applicable to SWATH-MS, false positive control was performed with FDR 1% to obtain significant quantitative results. MSstats was used for the statistical evaluation of significant differences in proteins or peptides from different samples. The core algorithm is linear mixed effect model that pre-processes the data according to the predefined comparison group, and then performed the significance test based on the model. Thereafter, differential protein screening was performed based on the fold change >2 and p-value < 0.05 as the criterion for the significant difference.
# MCL1 protein expression = assay: Immunoblot of MCL1 in eIF4E-dTAG clones and rescue models; type: cell-based, human; conditions: eIF4E-dTAG clones
# Experimental: One sample t and Wilcoxon tests (two-sided), using 100% as hypothetical control value, were performed and compared with the control in each cell line. b, c Real-time cell growth measurements monitored every 4 h over a 6-day period. Cell confluency (%) was calculated using Incucyte Zoom software and (mean ± SEM n = 3 biological replicates). Ordinary one-way ANOVA with Tukey multiple comparisons test compared treatment with the control in each cell line. […] Vinculin was used as loading control. H1299 (PAR) cell lines were treated with 1 μM dTAG^V-1 only as qualitative control. Vinculin was used as loading control. […] Significant p-values (< 0.05) are shown on the plots and the source data is located in the Source Data file.
# After seeding overnight in 6 well plates (Corning, cat#353046), cells were treated with compounds for the indicated times and concentration, harvested and the cell pellet lysed on ice in cell lysis buffer (Cell Signaling, cat#9803), supplemented with 1x Halt^TM protease inhibitor cocktail (Fisher Scientific, cat#78429) and cOmplete^TM protease inhibitor cocktail (Sigma-Aldrich, cat#11836153001) for 1 hr. Protein was quantified using BCA protein kit (Fisher Scientific, cat#23225). Western blot was performed using NuPAGE^TM 4–12% Bis-Tris gels (Fisher Scientific, cat#NP0336BOX) and transferred using the Invitrogen iBLOT^TM gel transfer device system (Fisher Scientific, Cat#IB21001). […] All primary antibodies were diluted (1:1000) in 5% BSA (Sigma-Aldrich, cat#A7906) in 1x TBS and 0.1% Tween 20 (Sigma-Aldrich, cat#P1379), except for vinculin (1:2000) that was diluted in casein blocker (Sigma-Aldrich, cat#1610782). This was followed by incubation with the secondary HRP-conjugated antibodies (anti-mouse HRP, Bio-rad, Watford, UK, cat#1705047; anti-rabbit HRP, Sigma-Aldrich, cat#NA934) in casein for 1 h at RT. ECL HRP substrate (SuperSignalTM West Pico, Fisher Scientific, cat#34578) was then added to detect protein targets by chemiluminescence and images acquired using the ChemiDocTM system (Bio-Rad). Quantitative densitometry analysis of protein bands was performed using Image J v1.53 software.
compound,measurement,setting,value
"COc1ccc(-c2ccc3c(N4CCOC[C@@H]4C)nc(N4CCOC[C@@H]4C)nc3n2)cc1CO [AZD8055, reference compound]","c-Myc, Average",c-Myc-activity; 1μM,19.11
same,"CMV, Average",c-Myc-activity; 1μM,86.61
same,"c-Myc, Average",c-Myc-activity; 10μM,13.82
same,"CMV, Average",c-Myc-activity; 10μM,130.75
same,activity in c-Myc reporter assay,"c-Myc-activity; SW620 cells, 1 or 10 µM, 24 hr",clearly inhibited activity
"C[C@@H]1C[C@@H]([C@H](O)CC2CC(=O)NC(=O)C2)C(=O)[C@@H](C)C1 [CHX, cycloheximide, reference compound]","protein synthesis reporter signal (cap-dependent luciferase / IRES luciferase), replicate values",[1],0.353 and 0.410 and 0.685 and 0.311 and 0.478 and 0.325
"Oc1cccc(-c2ccccc2)c1 [Compound 1, [1,1'-biphenyl]-3-ol]",Kd,[2],400 µM
same,LE (ligand efficiency),[2],0.36 (kcal/mol)/heavy atom
"O=C(O)C1(c2ccc(Cl)cc2)CCCC1 [Compound 2, 1-(4-chlorophenyl)cyclopentane-1-carboxylic acid]",Kd,[2],7400 µM
same,LE (ligand efficiency),[2],0.19 (kcal/mol)/heavy atom
"CC(O)c1ccc(-c2ccccc2F)cc1 (stereo not drawn) [Compound 3, 1-{2'-fluoro-[1,1'-biphenyl]-4-yl}ethan-1-ol]",Kd,[2],20 µM
same,improvement in affinity,[2]; compound 3 versus compound 1,20 fold
same,LE (ligand efficiency),[2],0.4 (kcal/mol)/heavy atom
CC[C@H](C(=O)N1CCCC[C@H]1C(=O)O[C@H](CCc1ccc(OC)c(OC)c1)c1ccccc1OCC(=O)NCCCCCCC(=O)N[C@H](C(=O)N1C[C@H](O)C[C@H]1C(=O)N[C@@H](C)c1ccc(-c2scnc2C)cc1)C(C)(C)C)c1cc(OC)c(OC)c(OC)c1 [dTAG-v1],"Normalised signal intensity, A2M",[3]; H1299 C2-2 dTAG clone,17.256
same,"Normalised signal intensity, AAAS (first entry, r5)",[3]; H1299 C2-2 dTAG clone,16.230
same,"Normalised signal intensity, AAAS (second entry, r6)",[3]; H1299 C2-2 dTAG clone,19.251
same,"Normalised signal intensity, AACS",[3]; H1299 C2-2 dTAG clone,16.229
same,"Normalised signal intensity, A2M",[3]; H1299 C3-1 dTAG clone,17.317
same,"Normalised signal intensity, AAAS (first entry, r5)",[3]; H1299 C3-1 dTAG clone,15.976
same,"Normalised signal intensity, AAAS (second entry, r6)",[3]; H1299 C3-1 dTAG clone,18.995
same,"Normalised signal intensity, AACS",[3]; H1299 C3-1 dTAG clone,16.150
same,"Normalised signal intensity, A2M",[3]; H1299 N2-1 dTAG clone,17.029
same,"Normalised signal intensity, AAAS (first entry, r5)",[3]; H1299 N2-1 dTAG clone,15.914
same,"Normalised signal intensity, AAAS (second entry, r6)",[3]; H1299 N2-1 dTAG clone,19.083
same,"Normalised signal intensity, AACS",[3]; H1299 N2-1 dTAG clone,15.496
same,"Normalised signal intensity, A2M",[3]; H1299 N3-2 dTAG clone,16.465
same,"Normalised signal intensity, AAAS (first entry, r5)",[3]; H1299 N3-2 dTAG clone,15.682
same,"Normalised signal intensity, AAAS (second entry, r6)",[3]; H1299 N3-2 dTAG clone,18.655
same,"Normalised signal intensity, AACS",[3]; H1299 N3-2 dTAG clone,16.041
"CC[C@H](C(=O)N1CCCC[C@H]1C(=O)O[C@H](CCc1ccc(OC)c(OC)c1)c1ccccc1OCC(=O)NCCCCCCC(=O)N[C@H](C(=O)N1C[C@@H](O)C[C@@H]1C(=O)N[C@@H](C)c1ccc(-c2scnc2C)cc1)C(C)(C)C)c1cc(OC)c(OC)c(OC)c1 [neg-dTAG^V-1, reference compound]",MCL1 protein after treatment,MCL1 protein expression,Loss of MCL1 protein was not observed
